Measured values as given in ChEMBL document CHEMBL1133283, “Arylsulfonyl-N,N-diethyl-dithiocarbamates: a novel class of antitumor agents” (Bioorg Med Chem Lett, 2000).

Columns and labels:
Type in all cases: functional
Settings in all cases: Homo sapiens
A549 = test: In vitro growth inhibition of compound was determined against A549/ATCC cell lines of non-small cell lung cancer
786-0 = test: In vitro growth inhibition of compound was determined against […] cell lines of Renal cancer
BT-549 = test: In vitro growth inhibition of compound was determined against BT-549 cell lines of Breast cancer
COLO 205 = test: In vitro growth inhibition of compound was determined against COLO-205 cell lines of colon cancer
CAKI-1 = test: In vitro growth inhibition of compound was determined against CAKI-1 cell lines of Renal cancer
DU-145 = test: In vitro growth inhibition of compound was determined against DU-145 cell lines of Prostate cancer
HCT-15 = test: In vitro growth inhibition of compound was determined against HCT-15 cell lines of colon cancer
HOP-92 = test: In vitro growth inhibition of compound was determined against HOP-92 cell lines of non-small cell lung cancer
HCT-116 = test: In vitro growth inhibition of compound was determined against HCT116 cell lines of colon cancer
HT-29 = test: In vitro growth inhibition of compound was determined against HT-29 cell lines of colon cancer
HCC 2998 = test: In vitro growth inhibition of compound was determined against HCC2998 cell lines of colon cancer
Hs-578T = test: In vitro growth inhibition of compound was determined against Hs 578.T cell lines of Breast cancer
K562 = test: In vitro growth inhibition of compound was determined against K-562 cell lines of Leukemia
KM12 = test: In vitro growth inhibition of compound was determined against KM12 cell lines of colon cancer
LOX IMVI = test: In vitro growth inhibition of compound was determined against LOX IMVI cell lines of Melanoma
MDA-MB-435 = test: In vitro growth inhibition of compound was determined against MDA-MB-435 cell lines of Breast cancer
MDA-MB-231 = test: In vitro growth inhibition of compound was determined against MDA-MB-231/ATCC cell lines of Breast cancer
MDA-N = test: In vitro growth inhibition of compound was determined against MDA-Ncell lines of Breast cancer
M14 = test: In vitro growth inhibition of compound was determined against M14 cell lines of Melanoma
Malme-3M = test: In vitro growth inhibition of compound was determined against MALME-3M cell lines of Melanoma
MCF7 = test: In vitro growth inhibition of compound was determined against MCF-7 cell lines of Breast cancer
NCI-H522 = test: In vitro growth inhibition of compound was determined against NCI-H522 cell lines of non-small cell lung cancer
NCI-H226 = test: In vitro growth inhibition of compound was determined against NCI-H226 cell lines of non-small cell lung cancer
NCI/ADR-RES = test: In vitro growth inhibition of compound was determined against NCI/ADR-RES cell lines of Breast cancer
OVCAR-3 = test: In vitro growth inhibition of compound was determined against OVCAR-3 cell lines of Ovarian cancer
OVCAR-8 = test: In vitro growth inhibition of compound was determined against OVCAR-8 cell lines of Ovarian cancer
OVCAR-4 = test: In vitro growth inhibition of compound was determined against OVCAR-4 cell lines of Ovarian cancer
RXF 393 = test: In vitro growth inhibition of compound was determined against RXF393 cell lines of Renal cancer
RPMI-8226 = test: In vitro growth inhibition of compound was determined against RPMI-8226 cell lines of Leukemia
SF-268 = test: In vitro growth inhibition of compound was determined against SF-268 cell lines of CNS cancer
SW-620 = test: In vitro growth inhibition of compound was determined against SW-620 cell lines of colon cancer
SF-539 = test: In vitro growth inhibition of compound was determined against SF-539 cell lines of CNS cancer
SR = test: In vitro growth inhibition of compound was determined against SR cell lines of Leukemia
SN12C = test: In vitro growth inhibition of compound was determined against SN12C cell lines of Renal cancer
SF-295 = test: In vitro growth inhibition of compound was determined against SF-295 cell lines of CNS cancer
SNB-75 = test: In vitro growth inhibition of compound was determined against SNB-75 cell lines of CNS cancer
SK-MEL-28 = test: In vitro growth inhibition of compound was determined against SK-MEL-28 cell lines of Melanoma
SK-MEL-5 = test: In vitro growth inhibition of compound was determined against SK-MEL-5 cell lines of Melanoma
TK-10 = test: In vitro growth inhibition of compound was determined against TK-10 cell lines of Renal cancer
UACC-257 = test: In vitro growth inhibition of compound was determined against UACC-257 cell lines of Melanoma
UO-31 = test: In vitro growth inhibition of compound was determined against UO-31 cell lines of Renal cancer
U-251 = test: In vitro growth inhibition of compound was determined against U251 cell lines of CNS cancer
ACHN = test: In vitro growth inhibition of compound was determined against ACHN cell lines of Renal cancer
HOP-62 = test: In vitro growth inhibition of compound was determined against HOP-62 cell lines of non-small cell lung cancer
CCRF-CEM = test: In vitro growth inhibition of compound was determined against CCRF-CEM cell lines of Leukemia
HL-60 = test: In vitro growth inhibition of compound was determined against HL-60(TB) cell lines of Leukemia
IGROV-1 = test: In vitro growth inhibition of compound was determined against IGROVI cell lines of Ovarian cancer
MOLT-4 = test: In vitro growth inhibition of compound was determined against MOLT-4 cell lines of Leukemia
PC-3 = test: In vitro growth inhibition of compound was determined against PC-3 cell lines of Prostate cancer

CCN(CC)C(=S)SS(=O)(=O)c1ccc([N+](=O)[O-])cc1
GI50 (A549): 1 µM | GI50 (786-0): 16 µM | GI50 (BT-549): 36 µM | GI50 (COLO 205): 19 µM | GI50 (CAKI-1): 18 µM | GI50 (DU-145): 27 µM | GI50 (HCT-15): 52 µM | GI50 (HOP-92): 4 µM | GI50 (HCT-116): 5 µM | GI50 (HT-29): 22 µM | GI50 (HCC 2998): 94 µM | GI50 (Hs-578T): > 100 µM | GI50 (K562): 19 µM | GI50 (KM12): 11 µM | GI50 (LOX IMVI): 17 µM | GI50 (MDA-MB-435): 23 µM | GI50 (MDA-MB-231): 26 µM | GI50 (MDA-N): 30 µM | GI50 (M14): 15 µM | GI50 (Malme-3M): 14 µM | GI50 (MCF7): 6 µM | GI50 (NCI-H522): 0.02 µM | GI50 (NCI-H226): 83 µM | GI50 (NCI/ADR-RES): 48 µM | GI50 (OVCAR-3): 35 µM | GI50 (OVCAR-8): 20 µM | GI50 (OVCAR-4): 45 µM | GI50 (RXF 393): 16 µM | GI50 (RPMI-8226): 12 µM | GI50 (SF-268): > 100 µM | GI50 (SW-620): 18 µM | GI50 (SF-539): 20 µM | GI50 (SR): 0.1 µM | GI50 (SN12C): 27 µM | GI50 (SF-295): 59 µM | GI50 (SNB-75): 77 µM | GI50 (SK-MEL-28): 19 µM | GI50 (SK-MEL-5): 2 µM | GI50 (TK-10): 43 µM | GI50 (UACC-257): 24 µM | GI50 (UO-31): 21 µM | GI50 (U-251): 14 µM | GI50 (ACHN): 36 µM | GI50 (HOP-62): 32 µM

CCN(CC)C(=S)SS(=O)(=O)c1ccccc1[N+](=O)[O-]
GI50 (A549): 3 µM | GI50 (786-0): 19 µM | GI50 (BT-549): 26 µM | GI50 (COLO 205): 28 µM | GI50 (CCRF-CEM): 2.5 µM | GI50 (CAKI-1): 17 µM | GI50 (DU-145): 19 µM | GI50 (HCT-15): 34 µM | GI50 (HOP-92): 14 µM | GI50 (HL-60): 0.2 µM | GI50 (HCT-116): 15 µM | GI50 (HT-29): 14 µM | GI50 (HCC 2998): 24 µM | GI50 (Hs-578T): 29 µM | GI50 (IGROV-1): 0.5 µM | GI50 (K562): 11 µM | GI50 (KM12): 12 µM | GI50 (MOLT-4): 0.4 µM | GI50 (LOX IMVI): 16 µM | GI50 (MDA-MB-435): 18 µM | GI50 (MDA-MB-231): 16 µM | GI50 (MDA-N): 19 µM | GI50 (M14): 11 µM | GI50 (Malme-3M): 10 µM | GI50 (MCF7): 25 µM | GI50 (NCI-H522): 0.08 µM | GI50 (NCI-H226): 36 µM | GI50 (NCI/ADR-RES): 30 µM | GI50 (OVCAR-3): 22 µM | GI50 (OVCAR-8): 18 µM | GI50 (OVCAR-4): 23 µM | GI50 (PC-3): 54 µM | GI50 (RXF 393): 15 µM | GI50 (RPMI-8226): 15 µM | GI50 (SF-268): 26 µM | GI50 (SW-620): 15 µM | GI50 (SR): 0.3 µM | GI50 (SN12C): 18 µM | GI50 (SF-295): 32 µM | GI50 (SNB-75): 76 µM | GI50 (SK-MEL-28): 13 µM | GI50 (SK-MEL-5): 3 µM | GI50 (TK-10): 29 µM | GI50 (UACC-257): 17 µM | GI50 (UO-31): 13 µM | GI50 (U-251): 13 µM | GI50 (ACHN): 24 µM | GI50 (HOP-62): 20 µM

CCN(CC)C(=S)SS(=O)(=O)c1ccc(NC(C)=O)cc1
GI50 (A549): 0.2 µM | GI50 (786-0): 17 µM | GI50 (BT-549): 61 µM | GI50 (COLO 205): 22 µM | GI50 (CCRF-CEM): 20 µM | GI50 (CAKI-1): 16 µM | GI50 (DU-145): 23 µM | GI50 (HCT-15): 28 µM | GI50 (HOP-92): 16 µM | GI50 (HL-60): 24 µM | GI50 (HCT-116): 15 µM | GI50 (HCC 2998): 27 µM | GI50 (Hs-578T): 60 µM | GI50 (IGROV-1): 12 µM | GI50 (K562): 69 µM | GI50 (KM12): 13 µM | GI50 (MOLT-4): 48 µM | GI50 (LOX IMVI): 14 µM | GI50 (MDA-MB-435): 19 µM | GI50 (MDA-MB-231): 20 µM | GI50 (MDA-N): 21 µM | GI50 (M14): 15 µM | GI50 (Malme-3M): 16 µM | GI50 (MCF7): 18 µM | GI50 (NCI-H522): < 0.01 µM | GI50 (NCI-H226): 35 µM | GI50 (NCI/ADR-RES): 27 µM | GI50 (OVCAR-3): 31 µM | GI50 (OVCAR-8): 15 µM | GI50 (OVCAR-4): 22 µM | GI50 (RXF 393): 11 µM | GI50 (RPMI-8226): 18 µM | GI50 (SF-268): 44 µM | GI50 (SW-620): 16 µM | GI50 (SR): 0.01 µM | GI50 (SN12C): 18 µM | GI50 (SF-295): 28 µM | GI50 (SNB-75): 32 µM | GI50 (SK-MEL-28): 15 µM | GI50 (SK-MEL-5): 0.4 µM | GI50 (TK-10): 48 µM | GI50 (UACC-257): 9 µM | GI50 (UO-31): 20 µM | GI50 (U-251): 15 µM | GI50 (ACHN): 27 µM | GI50 (HOP-62): 18 µM

CCN(CC)C(=S)SS(=O)(=O)c1ccccc1C(=O)O
GI50 (A549): 6.5 µM | GI50 (786-0): > 100 µM | GI50 (COLO 205): > 100 µM | GI50 (CCRF-CEM): 82 µM | GI50 (CAKI-1): > 100 µM | GI50 (DU-145): > 100 µM | GI50 (HCT-15): > 100 µM | GI50 (HOP-92): > 100 µM | GI50 (HL-60): 1.4 µM | GI50 (HT-29): > 100 µM | GI50 (IGROV-1): > 100 µM | GI50 (LOX IMVI): > 100 µM | GI50 (MDA-MB-231): > 100 µM | GI50 (MDA-N): > 100 µM | GI50 (M14): > 100 µM | GI50 (Malme-3M): 91 µM | GI50 (MCF7): > 100 µM | GI50 (NCI-H522): 1.2 µM | GI50 (NCI-H226): > 100 µM | GI50 (OVCAR-3): > 100 µM | GI50 (OVCAR-8): > 100 µM | GI50 (OVCAR-4): > 100 µM | GI50 (PC-3): > 100 µM | GI50 (RXF 393): > 100 µM | GI50 (SF-268): > 100 µM | GI50 (SW-620): > 100 µM | GI50 (SR): 3.6 µM | GI50 (SF-295): > 100 µM | GI50 (SNB-75): > 100 µM | GI50 (SK-MEL-28): > 100 µM | GI50 (SK-MEL-5): 37 µM | GI50 (UACC-257): > 100 µM | GI50 (UO-31): > 100 µM | GI50 (U-251): > 100 µM | GI50 (ACHN): > 100 µM | GI50 (HOP-62): > 100 µM
